Data: publication PMC549409 (Nucleic Acids Research, 2005)

Target: Has1p (Saccharomyces cerevisiae, UniProt Q03532)
Assay: malachite green ATPase assay, ADP competition
Format: biochemical
Conditions: 1 mM ADP with 1 mM ATP; total yeast RNA; pH 6.5; 2 mM MgCl2; 30°C; data not shown

Has1p, sequence (Q03532 whole entry): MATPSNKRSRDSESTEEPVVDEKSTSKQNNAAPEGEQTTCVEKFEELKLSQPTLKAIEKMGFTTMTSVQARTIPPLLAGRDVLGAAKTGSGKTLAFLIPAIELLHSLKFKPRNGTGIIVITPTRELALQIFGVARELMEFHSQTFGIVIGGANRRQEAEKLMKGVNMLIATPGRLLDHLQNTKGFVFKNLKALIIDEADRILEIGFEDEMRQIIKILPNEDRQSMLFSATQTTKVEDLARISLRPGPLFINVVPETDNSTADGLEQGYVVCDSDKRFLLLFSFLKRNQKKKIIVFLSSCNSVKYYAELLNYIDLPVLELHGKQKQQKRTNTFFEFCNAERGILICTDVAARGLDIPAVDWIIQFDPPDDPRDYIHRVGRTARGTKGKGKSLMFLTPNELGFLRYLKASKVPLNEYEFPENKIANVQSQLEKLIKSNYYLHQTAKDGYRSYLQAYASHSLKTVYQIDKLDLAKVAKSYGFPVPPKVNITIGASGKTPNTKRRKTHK

fold reduction of ATPase activity at 1 mM ADP: 5 fold
Compound: Nc1ncnc2c1ncn2[C@@H]1O[C@H](COP(=O)(O)OP(=O)(O)O)[C@@H](O)[C@H]1O [ADP]
